Laboratory results taken from patent US10441589B2, “Combinations and methods comprising a capsid assembly inhibitor” (Novira Therapeutics, Inc., priority 2016, dated 2019).
Structures can show the parent of a compound that is named as a salt. Where two headings read alike, the source gives them in different places. Marks after values point to notes of the source that are not given here.

How the values were obtained:
[1] = tested on: rtA181V/N236T HBV variant; test: Antiviral activity in HepG2 cells transiently transfected with rtA181V/N236T HBV variant; format: cell-based, HBV genotype B; details: EC50 fold change relative to mean wild-type EC50; mean ± SD
Experimental: In this example, the antiviral activity of Compound 1 was determined using HepG2 liver cells transiently transfected with plasmids expression replication-competent HBV DNA and quantitation of intracellular encapsidated HBV DNA. The antiviral activity of Compound 1 was measured against nucleoside inhibitor sensitive, wild-type HBV, as well as against HBV variants resistant to nucleoside analogs that contain defined amino acid changes in the coding sequence of the reverse transcriptase protein: rtL180M/M204V, rtN236T, rtA181V, rtA181V/N236T, and rtL180M/M204V/N236T. […]
(§1) HepG2 cells were seeded in collagen coated 96-well plates (BIOCOAT™; Fisher Scientific, Catalog#354407) at a density of 20,000 cells/well and allowed to attach overnight at 37° C. and 5% CO2. […] Cells were incubated with compounds for three days, after which intracellular HBV DNA was extracted from cells and levels of secreted Gaussian luciferase was determined from the medium using the Gaussia Flash Luciferase assay kit (THERMO SCIENTIFIC™, Fisher Scientific, Catalog#16158). […]

[2] = tested on: wild type HBV; test: Antiviral activity in HepG2 cells transiently transfected with wild-type HBV, intracellular encapsidated HBV DNA; format: cell-based, HBV genotype B; details: Hepatitis B virus, 72 h, HepG2 transient transfection, 3 days, mean ± SD, at least three studies, read-out: WT EC50
Experimental: (§2) In this example, the antiviral activity of Compound 1 was determined using HepG2 liver cells transiently transfected with plasmids expression replication-competent HBV DNA and quantitation of intracellular encapsidated HBV DNA. The antiviral activity of Compound 1 was measured against nucleoside inhibitor sensitive, wild-type HBV, as well as against HBV variants resistant to nucleoside analogs that contain defined amino acid changes in the coding sequence of the reverse transcriptase protein: rtL180M/M204V, rtN236T, rtA181V, rtA181V/N236T, and rtL180M/M204V/N236T.
(§3) Plasmid DNA constructs containing a 1.1×HBV genome under the control of a CMV promoter were previously cloned from serum of an HBV infected patient prior to LMV treatment (Genbank AY220698, Fudan University, China; SEQ ID NO:1, see Table 1) and after development of resistance to LMV (Genbank AY220697, Fudan University, China; SEQ ID NO:2, see Table 1) (Zhang J M et al. 2005. J Med Virol 77: 203-208). Genotyping analysis confirmed that both isolates belong to genotype B HBV, and that the isolate collected after the development of resistance to LMV contained two amino acid changes within the polymerase gene (L180M/M204V). The HBV variant was named rtL180M/M204V to indicate that the amino acid changes were present in the reverse transcriptase (rt) protein. Two additional plasmids were generated by introducing coding sequence changes resulting in the amino acid changes N236T and A181V in the HBV polymerase, respectively. The nucleotide changes were introduced into the wild type genotype B plasmid by site directed mutagenesis according to manufacturer recommendation (Agilent Technologies; Santa Clara, Calif.; Catalog#200519) using the following primers and their corresponding reverse complement sequence (nucleotide change underlined): 5′-CTTTGGGTATACATTTAACCCCTCACAAAAC-3′ (rtN236T; SEQ ID NO:3), 5′-GTCCGTTTCTCTTGGTTCAGTTTACTAGTG-3′ (rtA181V; SEQ ID NO:4). In two additional plasmid constructs, the rtN236T amino acid change was also added into the rtA181V and rtL180M/M204V plasmids to generate the rtA181V/N236T double mutant and rtL180M/M204V/N236T triple mutant HBV variants, respectively. […]
as §1

[3] = tested on: rtL180M/M204V HBV variant; test: Antiviral activity in HepG2 cells transiently transfected with rtL180M/M204V HBV variant; format: cell-based, HBV genotype B; details: for Fold Change rtL180M/M204V: EC50 fold change relative to mean wild-type EC50, mean ± SD
Experimental: as §2, §3, §1

[4] = tested on: rtN236T HBV variant; test: Antiviral activity in HepG2 cells transiently transfected with rtN236T HBV variant; format: cell-based, HBV genotype B; details: EC50 fold change relative to mean wild-type EC50; mean ± SD
Experimental: as §2, §3, §1

[5] = tested on: rtL180M/M204V/N236T HBV variant; test: Antiviral activity in HepG2 cells transiently transfected with rtL180M/M204V/N236T HBV variant; format: cell-based, HBV genotype B; details: EC50 fold change relative to mean wild-type EC50; mean ± SD
Experimental: as §2
(§4) Plasmid DNA constructs containing a 1.1×HBV genome under the control of a CMV promoter were previously cloned from serum of an HBV infected patient prior to LMV treatment (Genbank AY220698, Fudan University, China; SEQ ID NO:1, see Table 1) and after development of resistance to LMV (Genbank AY220697, Fudan University, China; SEQ ID NO:2, see Table 1) (Zhang J M et al. 2005. J Med Virol 77: 203-208). Genotyping analysis confirmed that both isolates belong to genotype B HBV, and that the isolate collected after the development of resistance to LMV contained two amino acid changes within the polymerase gene (L180M/M204V). The HBV variant was named rtL180M/M204V to indicate that the amino acid changes were present in the reverse transcriptase (rt) protein. Two additional plasmids were generated by introducing coding sequence changes resulting in the amino acid changes N236T and A181V in the HBV polymerase, respectively. […]
as §1

[6] = tested on: rtA181V HBV variant; test: Antiviral activity in HepG2 cells transiently transfected with rtA181V HBV variant; format: cell-based, HBV genotype B; details: for Fold Change rtA181V: EC50 fold change relative to mean wild-type EC50, mean ± SD
Experimental: as §2, §4, §1

[7] = Cell viability of primary human hepatocytes (CellTiter-Glo, intracellular ATP); format: cell-based; details: human, cryopreserved primary human hepatocytes
Experimental: (§5) Cryopreserved primary human hepatocytes from individual donors (primary hepatocyte IDs: HuM4038, HuM4055A, and HuM4059) were purchased from Triangle Research Labs (TRL; Research Triangle Park, N.C.). Cells were thawed using hepatocyte thawing medium (TRL, Catalog#MCHT50) according to manufacturers' recommendations. After centrifugation, cells were resuspended in supplemented hepatocyte plating medium (TRL, Catalog#MP250). Cells were plated in collagen Type I coated 96-well plates (Corning; Corning, N.Y.; Catalog#356407) at a density of 40,000 cells per well and maintained in humidified incubators at 37° C. and 5% CO2 overnight prior to addition of test compounds.
(§6) For each donor, three 96-well plates were set up to evaluate the effect of increasing concentrations of Compound 1 either alone or in combination with nucleoside analogs on hepatocyte cell viability. On each plate, cells were incubated with Compound 1 alone as duplicates, or Compound 1 in the presence of LMV, TFV, or ETV as triplicates. The effects of nucleoside analogs alone on hepatocyte cell viability were also determined in triplicates for each donor. Compound 1 was half-log serially diluted in DMSO (Sigma, Catalog #D2650) and added to primary human hepatocytes either alone or in combination with LMV (30 and 300 μM), TFV (30 μM), or ETV (30 μM). Single and combined drugs were added to primary human hepatocytes at a final DMSO (Sigma D2650) concentration of 0.5% across all concentrations. Cells were incubated with compounds for three days, after which medium was removed and fresh medium containing compounds was added and incubated for another three days. As a no compound control, primary human hepatocytes were treated with 0.5% DMSO, and these values were then used to define the 0% inhibition level. Background signal was determined as the mean value from wells containing only culture medium. Cell viability was monitored by using CellTiter-Glo cell viability reagent according to the manufacturer protocol (Promega; Madison, Wis.; G7573). Chemiluminescence signal proportional to the amount of cellular ATP was measured by using the Victor X4 plate reader (Perkin Elmer; Waltham, Mass.). The mean background signal from the medium only wells was subtracted from all other samples, and percent inhibition was calculated using equation E1 (as in Example 1): % inhibition=(DMSOave−Xi)/DMSOave×100% (E1):
(§7) where DMSOave is the mean signal calculated from the wells that were treated with 0.5% DMSO control (0% inhibition control) and X, is the signal measured from the individual wells. CC50 values were determined from the % inhibition data obtained at different compound concentrations by non-linear fitting using Graphpad Prism software and equation E3, in cases were % inhibition values exceeded 50% at the highest concentration tested. Y=Ymin+(Ymax−Yin)/(1+10^(LogCC50−X)×HillSlope) (E3):
(§8) where Y represents percent inhibition values and X represents the logarithm of compound concentrations.

[8] = tested on: HBV DNA replication in HepG2.2.15 cells; test: 6-day HBV antiviral assay in HepG2.2.15 cells, qPCR of HBV DNA in supernatant, MacSynergy II; format: cell-based
Experimental: The anti-HBV activity of combinations of Compound 2 and Compound 3 with the nucleos(t)ide analogues ETV or TFV was assessed in a 6-day HBV antiviral assay using qPCR for the detection of HBV DNA in the cell culture supernatant as a read-out. The combination effect was analyzed using Mac Synergy II software. The anti-HBV activity of ETV and TFV when tested as single agents in HepG2.2.15 cells as well (Table 14).
During the antiviral testing, HepG2.2.15 cells were cultured in RPMI1640 medium and the FBS was reduced to 2%. Cells were plated at a density of 50.000 cells per well into a 96-well plate.
One day after seeding of the HepG2.2.15 cells, the supernatant was removed and 200 μL medium with test compounds, diluted in a checkerboard fashion, was added to the cells. […] HBV DNA was detected by quantitative real time PCR (qPCR). HBV DNA was quantified by a real-time PCR assay using a LightCycler480 Probes Master kit (Roche) with primers 5′-[sequence]-3′ (sense) and 5′-[sequence]-3′ (antisense, SEQ ID NO: 7). […]
The percentage inhibition values obtained for each combination of compound concentration was calculated as the average of 3 to 5 replicate plates of the same combination per experiment. To robustly identify outliers, the distance from the average of the other 4 replicates was calculated for every data point. […]

[9] = tested on: primary human hepatocytes; test: Cell viability of primary human hepatocytes (CellTiter-Glo, intracellular ATP); format: cell-based; details: 6 days; for cell viability at single concentrations: 30 or 300 μM LMV, 30 μM TFV, 30 μM ETV, three donors
Experimental: as §5, §6, §7, §8

[10] = donor HuM4038, first HuM4038 column of Table 3, 6 days, read-out: HuM4038 CC50
[11] = donor HuM4038, second HuM4038 column of Table 3, 6 days, read-out: HuM4038 CC50
[12] = donor HuM4055A, 6 days, read-out: HuM4055A CC50
[13] = donor HuM4059, 6 days, read-out: HuM4059 CC50

Structure (SMILES) | Fold Change rtA181V/N236T [1] | EC50 [2] [µM] | Fold Change rtL180M/M204V [3] | Fold Change rtN236T [4] | Fold Change rtL180M/M204V/N236T [5] | Fold Change rtA181V [6] | CC50 at 6 days [7, 10] [µM] | CC50 at 6 days [7, 11] [µM] | CC50 at 6 days [7, 12] [µM] | CC50 at 6 days [7, 13] [µM] | cell viability at single concentrations [9] | also measured
O=C(Nc1cc(F)c(F)c(F)c1)c1ccc(F)c(S(=O)(=O)N2CCC(O)CC2)c1 [Compound 1, 4-fluoro-3-((4-hydroxypiperidin-1-yl)sulfonyl)-N-(3,4,5,-trifluorophenyl)benzamide] | 0.85 ± 0.26^ns | 0.31 ± 0.1 | 1.3 ± 0.6^ns | 0.85 ± 0.40^ns | 1.4 ± 0.5^ns | 0.82 ± 0.19^ns | 16 | 26 | 19 | 82 | – | CC50 at 6 days ([7]; Table 4, alone, donor HuM4038, read-out: Cmpd (I) CC50): 26 µM; CC50 at 6 days ([7]; Table 4, alone, donor HuM4055A, read-out: Cmpd (I) CC50): 19 µM; CC50 at 6 days ([7]; Table 4, alone, donor HuM4059, read-out: Cmpd (I) CC50): 83 µM; CC50 at 6 days ([7]; Table 5, alone, donor HuM4038, read-out: Cmpd (I) CC50): 16 µM; CC50 at 6 days ([7]; Table 5, alone, donor HuM4055A, read-out: Cmpd (I) CC50): 19 µM; CC50 at 6 days ([7]; Table 5, alone, donor HuM4059, read-out: Cmpd (I) CC50): 83 µM; CC50 at 6 days ([7]; Table 6, alone, donor HuM4038, read-out: Cmpd (I) CC50): 16 µM; CC50 at 6 days ([7]; Table 6, alone, donor HuM4055A, read-out: Cmpd (I) CC50): 19 µM; CC50 at 6 days ([7]; Table 6, alone, donor HuM4059, read-out: Cmpd (I) CC50): 83 µM; CC50 at 6 days ([7]; range over three donors (HuM4038, HuM4055A, HuM4059), 6 days, read-out: CC50 values, range): 16 to 82 µM
C=C1[C@H](CO)[C@@H](O)C[C@@H]1n1cnc2c(=O)[nH]c(N)nc21 [ETV, entecavir] | – | 0.0014 ± 0.0004 | – | 0.67 ± 0.22^ns | – | – | > 30 | > 30 | > 30 | > 30 | No reduction of cell viability | EC50 ([8]; Hepatitis B virus, HepG2.2.15, read-out: Median EC50): 0.07 nM
Nc1ccn([C@@H]2CS[C@H](CO)O2)c(=O)n1 [LMV, Lamivudine] | – | 0.53 | >190 | 1.0 ± 0.5^ns | >190 | – | > 30 | > 300 | > 300 | > 300 | No reduction of cell viability | –
CC(C)OC(=O)OCOP(=O)(CO[C@H](C)Cn1cnc2c(N)ncnc21)OCOC(=O)OC(C)C [TDF, tenofovir disoproxil fumarate] | 2.8 ± 1.4^b | 0.032 | 1.1 ± 0.3^ns | 2.2 ± 1.0^b | 2.9 ± 1.5^b | 1.4 ± 0.05^ns | – | – | – | – | – | EC50 ([3]; Hepatitis B virus, HepG2, read-out: mean EC50 against rtL180M/M204V variant): 0.034 µM; EC50 ([6]; Hepatitis B virus, HepG2, read-out: mean EC50 against rtA181V variant): 0.043 µM
C[C@H](Cn1cnc2c(N)ncnc21)OCP(=O)(O)O [TFV, tenofovir] | – | – | – | – | – | – | – | – | – | – | No reduction of cell viability | EC50 ([8]; single agents in HepG2.2.15 cells, read-out: Median EC50): 15 nM; CC50 ([9]; donor HuM4038, first HuM4038 column of Table 3, read-out: HuM4038 CC50): > 30 µM; CC50 ([9]; donor HuM4038, second HuM4038 column of Table 3, read-out: HuM4038 CC50): > 30 µM; CC50 ([9]; donor HuM4055A, read-out: HuM4055A CC50): > 30 µM; CC50 ([9]; donor HuM4059, read-out: HuM4059 CC50): > 30 µM
